Counter-ions that a name gives are not always drawn.
Molecular target: Leukotriene B4 receptor 1 (Cavia porcellus)
Assay: Binding affinity against Guinea pig membrane LTB4 Receptor.

Ki [µM]	Structure (SMILES)
0.033	CCCCCCc1cc(CC)c(OCCCCCC(C)(C)c2nn[nH]n2)cc1O [sodium 4-ethyl-2-hexyl-5-[6-methyl-6-(2H-1,2,3,4-tetraazol-5-yl)heptyloxy]phenol]
0.014	CCCc1cc(CC)c(OCCCCCC(C)(C)c2nn[nH]n2)cc1O [Sodium salt of 4-Ethyl-5-[6-methyl-6-(2H-tetrazol-5-yl)-heptyloxy]-2-propyl-phenol]
0.017	CCc1cc(CC)c(OCCCCCC(C)(C)c2nn[nH]n2)cc1O [sodium 2,4-diethyl-5-[6-methyl-6-(2H-1,2,3,4-tetraazol-5-yl)heptyloxy]phenol]

— BindingDB's records for doi:10.1016/0960-894X(95)00340-Y (1995)
